For orientation: IC50 means the point on the concentration scale where inhibition reaches its midpoint. Read a low IC50 as greater potency.

In brackets after ≈: the same amount, converted by molar mass. Entries after “also recorded” stand apart in the source; their conditions may differ.

In one data set the test system is mouse Leukemia L1210. As to the kind of experiment: Inhibition of proliferation of mouse leukemia L1210 cells. The conditions noted are these: 48 h; mouse leukemia L1210, 37° C, 2 days. It counts as cell-based. The procedure:
(§1) A cell suspension containing cells of mouse Leukemia L1210, mouse Leukemia P388, mouse Leukemia EL4, mouse IMC carcinoma or human lung cancer LX-1 cells in a culture medium containing 10% calf serum at a cell density of 1 x 10^5 cells/ml was prepared, and 200 μl-portion of the cell suspension so prepared was placed in a microplate and then added with a solution of MI43-37F11 substance at varying concentrations (dissolved in a mixture of water and dimethylsulfoxide (95:5)). The cell suspension containing the test compound added was subsequently incubated at 37° C for 2 days (but 5 days for the LX-1 cells).
(§2) After the incubation, the number of the cells of the L1210 cells, P388 cells, the EL4 cells and the IMC carcinoma cells in the treated groups was counted by means of Coulter-counter. The control group (untreated) of the cell suspension to which the test compound was not added was incubated in the same way as above and then the number of the cells was similarly counted.
(§3) Rate (%) of inhibition of the cell proliferation of the treated group against that of the control group (untreated) was evaluated. […]

In a further data set the test system is mouse Leukemia P388. Description: Inhibition of proliferation of mouse leukemia P388 cells. It counts as cell-based. The note with it: 48 h; mouse leukemia P388, 37° C, 2 days. The procedure:
as §1, §2, §3

The test system of another data set is mouse Leukemia EL4. As to the kind of experiment: Inhibition of proliferation of mouse leukemia EL4 cells. The conditions noted are these: 48 h; mouse leukemia EL4, 37° C, 2 days. Type of data set: cell-based. How it is done: as §1, §2, §3
The test system of the next data set is mouse IMC carcinoma. Description: Inhibition of proliferation of mouse IMC carcinoma cells. Type of data set: cell-based. The conditions noted are these: 48 h, 37° C, 2 days. How it is done: as §1, §2, §3
In a further data set the test system is human lung cancer LX-1. Description: Inhibition of proliferation of human lung cancer LX-1 cells (MTT). Type of data set: cell-based. The note with it: 120 h, human lung cancer LX-1, 37° C, 5 days. How it is done: as §1, with “cells). […]” for “cells).”
In data set [1] the test system is Ehrlich carcinoma. Description: Therapeutic treatment of Ehrlich carcinoma-bearing mice by intraperitoneal injection. Type of data set: in vivo, ICR mice. How it is done:
(a) Experiments for therapeutic treatment of Ehrlich carcinoma-bearing mice were conducted by intraperitoneal injection of the antibiotic MI43-37F11 substance. Thus, a cell suspension of Ehrlich ascites carcinoma cells was subcutaneously inoculated at the abdominal region of ICR mice (female, 6-week old, 4 mice in each treated group) so that the number of the carcinoma cells as subcutaneously transplanted was 2×10^6 cells per mouse. After the transplantation of the carcinoma cells, the antibiotic MI43-37F11 substance was administered by intraperitoneal injection to the mice having the transplanted and firmly grown carcinoma cells, according to the following schedule of administration. Namely, MI43-37F11 substance was administered at a dosage of 10 mg/kg or 2.5 mg/kg or 0.625 mg/kg only once on the 7th day after the transplantation of the cells, or alternatively MI43-37F11 substance was administered at a dosage of 2.5 mg/kg or 1.25 mg/kg or 0.625 mg/kg, totally five times but every other day from the 7th day to the 14th day after the transplantation of the carcinoma cells. The administration of MI43-37F11 substance was not made but intraperitoneal injection of physiological saline was made in the mice of the control group (untreated) (8 mice in each control group).
On the 15th day after the transplantation of the carcinoma cells, the mass of the tumor (carcinoma) was surgically removed out of each mouse and weighed. The rate of the reduction in the weight of the tumor (carcinoma) obtained from the group of mice treated with MI43-37F11 substance was evaluated in term of the rate (%) of inhibition, with such an assumption that the weight of the tumor obtained from the control group of mice was amounting to 100. In other words, the rate (%) of inhibition to the growth of Ehrlich carcinoma was calculated according to the following equation [formula] where C means the weight of the tumor in the control group of mice (untreated) and T means the weight of the tumor of the treated group of mice.

A further data set in a line: Solubility. It counts as physicochemical.
A short description of a further data set: Toxicity to mammalian. It counts as in vivo. The conditions noted are these: general statement, no data.
The test system of data set [2] is Ehrlich carcinoma. As to the kind of experiment: Activity against Ehrlich carcinoma (general statement). Type of data set: in vivo. The conditions noted are these: general statement in words. How it is done: (a) Experiments for therapeutic treatment of Ehrlich carcinoma-bearing mice were conducted by intraperitoneal injection of the antibiotic MI43-37F11 substance. Thus, a cell suspension of Ehrlich ascites carcinoma cells was subcutaneously inoculated at the abdominal region of ICR mice (female, 6-week old, 4 mice in each treated group) so that the number of the carcinoma cells as subcutaneously transplanted was 2×10^6 cells per mouse. After the transplantation of the carcinoma cells, the antibiotic MI43-37F11 substance was administered by intraperitoneal injection to the mice having the transplanted and firmly grown carcinoma cells, according to the following schedule of administration. […]
On the 15th day after the transplantation of the carcinoma cells, the mass of the tumor (carcinoma) was surgically removed out of each mouse and weighed. The rate of the reduction in the weight of the tumor (carcinoma) obtained from the group of mice treated with MI43-37F11 substance was evaluated in term of the rate (%) of inhibition, with such an assumption that the weight of the tumor obtained from the control group of mice was amounting to 100. […]

For `COc1cc(O)c2c(=O)oc(CO)cc2c1` [MI43-37F11 substance], the IC50 in the data set on mouse Leukemia L1210 was 50 mg/L (≈ 225 µM); in the data set with mouse Leukemia P388, 50 mg/L (≈ 225 µM); with mouse Leukemia EL4, 52 mg/L (≈ 234 µM); with mouse IMC carcinoma, 72 mg/L (≈ 324 µM); in the data set with human lung cancer LX-1, 100 mg/L (≈ 450 µM). Besides, the “Rate (%) of Inhibition” value with Ehrlich carcinoma [1] (0.625 mg/kg i.p., 7th day (only once), tumor weight on 15th day) is 12%; in the data set with Ehrlich carcinoma [1] (0.625 mg/kg/day i.p., 7th day to 14th day, every second day, totally 5 times) it was 30%; with Ehrlich carcinoma [1] (1.25 mg/kg/day i.p., 7th day to 14th day, every second day, totally 5 times) it was 67%; in the data set on Ehrlich carcinoma [1] (2.5 mg/kg i.p., 7th day (only once), tumor weight on 15th day), 51%; in the data set with Ehrlich carcinoma [1] (2.5 mg/kg/day i.p., 7th day to 14th day, every second day, totally 5 times) it was 60%; with Ehrlich carcinoma [1] (10 mg/kg i.p., 7th day (only once), tumor weight on 15th day), 59%. The Solubility entry in the data set “Solubility” (in acetonitrile) is given as “easily soluble”; in the data set “Solubility” (in chloroform), “soluble”; in “Solubility” (in hexane) it was “hardly soluble”; in the data set “Solubility” (in methanol), “soluble”; in “Solubility” (in water) it was “hardly soluble”. Besides, the toxicity to mammalian result in “Toxicity to mammalian” is on record as “low toxicity to mammalian; also recorded: without showing any observable toxicity to mammalian”. For the same compound, the “activity against Ehrlich carcinoma” value in the data set on Ehrlich carcinoma [2] was “high activity”.
